# From publication PMC12528448, “Resistance to CDK7 inhibitors directed by acquired mutation of a conserved residue in cancer cells” (The EMBO Journal, 2025)
# Several values for one entry are separate records, joined by “and”; a condition that tells them apart may be missing. Identical values can stand only once.
# How the values were obtained:
# [1] = target: T1, CDK7-WT (Homo sapiens, UniProt P50613); experiment: NanoBRET Target Engagement assay, K-10 tracer displacement in HEK293 cells; type: binding; settings: for % Occupacy: CDK7 WT, replicates N1-N3
# T1 construct: expressed in transfected cells; host or cells: HEK293
# Procedure: (§1) Energy transfer between the NanoLuc fusion protein and a cell-permeable fluorescent energy transfer probe facilitates quantitative determination of target engagement in live cells (Wells et al, [2020]). Assays were conducted according to this previous report, using the optimal CDK7 probe, K-10, at a concentration of 0.5 µM.
# (§2) CDK4, CDK6 and CDK7 and the respective mutant sequences, obtained as synthesised DNA fragments from IDT (Leuven), were cloned by HiFi DNA assembly (New England Biolabs) into the pNLF1-N NanoLuc protein fusion vector (Promega). HEK293 cells, transiently transfected with NanoLuc-CDK fusion constructs, were used for activity determination, utilising the NanoBRET Target Engagement Intracellular Kinase Assay. A CCND1 expression construct was co-transfected with the NanoLuc-CDK4 and NanoLuc-CDK6 fusion constructs. The recommended cell-permeable energy transfer probe, K-10, was used to assess target engagement, as detailed in the manufacturer’s methods (Promega). […] The BRET ratio (mBU) was calculated as acceptor emission (590–610 nm)/donor emission (410–490 nm) × 1000. The mBU values were plotted against the energy probe concentrations to determine maximal binding (Bmax) and Kd values. BRET signal competition by CDK inhibitors was used to determine compound binding to WT and mutant CDKs. […] Inhibitor binding was determined using a fourfold dilution series. mBU values were plotted against test compound concentrations in the presence of K10 tracer. EC50 values were determined using nonlinear regression curve-fitting. Test compound occupancy (%) was calculated using the equation [1 − (x − z)/(y − z)] × 100, where x = mBU in the presence of the test compound and K-10 tracer, y = mBU with K-10 tracer and vehicle control, and z = mBU in the absence of the K-10 tracer or test compound (Wells et al, [2020]).
# [2] = target: T2, CDK7-D97N (Homo sapiens, UniProt P50613, D97N); experiment: as above; type: binding; settings: for % Occupacy: CDK7 D97N, replicates N1-N3
# T2 construct: expressed in transfected cells; host or cells: HEK293
# Procedure: as §1, §2
# [3] = system: LNCaP cells; experiment: Growth assay (SRB), LNCaP; type: cell-based, human
# How it was run: (§3)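 For the SRB assay, cells were treated 2 days after seeding with increasing drug concentrations for 4 days, and IC50 came from non-linear regression. For the IncuCyte runs, drugs were added 2 days post-seeding, confluency was imaged every 6 h, and doubling times were fitted to an exponential growth equation.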
# [4] = system: 22Rv1-SamR cells; experiment: Growth assay (SRB), Samuraciclib-resistant 22Rv1; type: cell-based, human; settings: for % Growth: 22Rv1 SamR, 4 days, biological reps
# How it was run: as §3
# [5] = system: MCF7 cells; experiment: Growth assay (SRB), MCF7; type: cell-based, human; settings: for % Growth: biological reps
# How it was run: as §3
# [6] = system: 22Rv1-CDK7-D97N cells; experiment: Growth assay (SRB), 22Rv1 CDK7-D97N knock-in pool; type: cell-based, human; settings: for % Growth: 22Rv1 CDK7 D99N
# How it was run: (§4)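 CRISPR-Cas9 knock-in lines were treated with increasing drug concentrations two days after seeding, then grown 4 days. Cell number by SRB staining; IC50 from non-linear regression.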
# [7] = system: LNCaP-CDK7-D97N cells; experiment: Growth assay (SRB), LNCaP CDK7-D97N knock-in; type: cell-based, human; settings: for % Growth: LNCaP CDK7 D99N
# How it was run: as §4
# T2 sequence (P50613 whole entry D97N): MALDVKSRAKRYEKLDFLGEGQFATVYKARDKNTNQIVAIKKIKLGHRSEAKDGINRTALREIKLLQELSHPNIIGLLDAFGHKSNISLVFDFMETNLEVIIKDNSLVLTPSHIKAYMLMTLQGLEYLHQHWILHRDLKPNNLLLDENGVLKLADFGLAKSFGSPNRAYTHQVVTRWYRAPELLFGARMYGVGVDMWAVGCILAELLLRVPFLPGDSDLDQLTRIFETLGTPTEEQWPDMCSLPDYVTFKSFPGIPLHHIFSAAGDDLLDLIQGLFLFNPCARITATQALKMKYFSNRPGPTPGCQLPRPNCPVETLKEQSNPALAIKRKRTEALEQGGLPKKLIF
# T1 sequence (P50613 whole entry): as the sequence (P50613 whole entry D97N) above, with N97D counted along it
smiles,measurement,setting,value
CN(C)C/C=C/C(=O)Nc1ccc(C(=O)N[C@@]2(C)CCC[C@@H](Nc3ncc(Cl)c(-c4c[nH]c5ccccc45)n3)C2)nc1 [SY-1365],EC50,"[1]; CDK7-WT, K-10 0.5 µM, HEK293",29 nM
same,% Occupacy,[1]; Log10 Conc. (nM) 0.09,5.29% and 2.02% and 1.09%
same,% Occupacy,[1]; Log10 Conc. (nM) 0.69,14.34% and 11.55% and 9.36%
same,% Occupacy,[1]; Log10 Conc. (nM) 1.29,40.53% and 32.34% and 29.30%
same,% Occupacy,[1]; Log10 Conc. (nM) 1.89,74.64% and 88.34% and 86.64%
same,% Occupacy,[1]; Log10 Conc. (nM) 2.49,98.27% and 99.01% and 95.02%
same,% Occupacy,[1]; Log10 Conc. (nM) 3.10,99.51% and 100.88% and 97.39%
same,% Occupacy,[1]; Log10 Conc. (nM) 3.70,102.75% and 104.94% and 102.49%
same,% Occupacy,[1]; Log10 Conc. (nM) 4.30,86.99% and 86.89% and 86.73%
same,% Occupacy,[1]; Log10 Conc. (nM) -0.52,10.37% and -0.26% and 2.09%
same,% Occupacy,[1]; Log10 Conc. (nM) -1.12,9.68% and 0.78% and 5.84%
same,% Occupacy,[1]; Log10 Conc. (nM) -1.72,8.54% and -2.37% and 7.63%
same,EC50,"[2]; CDK7-D97N, K-10 0.5 µM, HEK293",31.3 nM
same,% Occupacy,[2]; Log10 Conc. (nM) 0.09,2.93% and 3.17% and -0.97%
same,% Occupacy,[2]; Log10 Conc. (nM) 0.69,10.17% and 10.16% and 4.41%
same,% Occupacy,[2]; Log10 Conc. (nM) 1.29,36.69% and 35.14% and 27.40%
same,% Occupacy,[2]; Log10 Conc. (nM) 1.89,86.86% and 82.26% and 69.03%
same,% Occupacy,[2]; Log10 Conc. (nM) 2.49,95.98% and 95.66% and 91.52%
same,% Occupacy,[2]; Log10 Conc. (nM) 3.10,98.50% and 98.01% and 96.95%
same,% Occupacy,[2]; Log10 Conc. (nM) 3.70,100.42% and 100.34% and 99.95%
same,% Occupacy,[2]; Log10 Conc. (nM) 4.30,97.72% and 96.80% and 96.75%
same,% Occupacy,[2]; Log10 Conc. (nM) -0.52,-0.36% and 0.88% and 0.71%
same,% Occupacy,[2]; Log10 Conc. (nM) -1.12,3.66% and 1.72% and -0.86%
same,% Occupacy,[2]; Log10 Conc. (nM) -1.72,3.68% and 0.83% and -1.37%
same,Difference in EC50 values for mutant and WT CDK7,[2]; NanoBRET,no significant difference
same,% Growth,[3]; Log10 Conc. (nM) 0.09,56.73% and 37.69%
same,% Growth,[3]; Log10 Conc. (nM) 1.29,1.68% and -7.82%
same,% Growth,[3]; Log10 Conc. (nM) 2.49,-22.61% and -22.62%
same,% Growth,[3]; Log10 Conc. (nM) 3.70,-23.75%
same,% Growth,[3]; Log10 Conc. (nM) -0.52,84.52% and 77.18%
same,% Growth,[3]; Log10 Conc. (nM) -1.12,86.80% and 137.61%
same,% Growth,[3]; Log10 Conc. (nM) -1.72,105.02%
same,Sensitivity in growth assays,[4]; 22Rv1-SamR,remained sensitive
same,"Resistance (Fold), fold increase in IC50 of 22Rv1-SamR relative to 22Rv1",[4]; 22Rv1-SamR vs 22Rv1,1.0 fold
same,% Growth,[4]; Log10 Conc. (nM) 0.09,50.67% and 45.27%
same,% Growth,[4]; Log10 Conc. (nM) 0.69,34.60% and 27.89%
same,% Growth,[4]; Log10 Conc. (nM) 1.29,26.06% and 19.62%
same,% Growth,[4]; Log10 Conc. (nM) 1.89,-2.71% and -9.74%
same,% Growth,[4]; Log10 Conc. (nM) 2.49,-0.26% and -8.99%
same,% Growth,[4]; Log10 Conc. (nM) -0.52,81.58% and 73.70%
same,% Growth,[4]; Log10 Conc. (nM) -1.12,90.71% and 90.62%
same,IC50,"[5]; 4 days, SRB",0.89 nM
same,% Growth,"[5]; Log10 Conc. (nM) 3.70, 4 days",-12.18%
same,% Growth,"[5]; Log10 Conc. (nM) -0.52, 4 days",88.75% and 65.89% and 87.60% and 88.37%
same,% Growth,"[5]; Log10 Conc. (nM) -1.12, 4 days",97.02% and 94.10% and 95.64% and 94.95%
same,% Growth,"[5]; Log10 Conc. (nM) -1.72, 4 days",90.31% and 94.08% and 94.26%
same,Sensitivity in growth assays,[6]; 22Rv1-CDK7-D97N vs parental,remaining sensitive
same,% Growth,[6]; Log10 Conc. (nM) 0.09,48.76% and 39.48%
same,% Growth,[6]; Log10 Conc. (nM) 0.69,32.85% and 26.42%
same,% Growth,[6]; Log10 Conc. (nM) 1.29,16.40% and 13.77%
same,% Growth,[6]; Log10 Conc. (nM) 1.89,-9.18% and -1.73%
same,% Growth,[6]; Log10 Conc. (nM) 3.70,-12.72%
same,% Growth,[6]; Log10 Conc. (nM) -0.52,87.25% and 62.47%
same,% Growth,[6]; Log10 Conc. (nM) -1.12,95.17% and 93.47%
same,% Growth,[6]; Log10 Conc. (nM) -1.72,98.87%
same,% Growth,[7]; Log10 Conc. (nM) 0.09,63.76% and 49.89%
same,% Growth,[7]; Log10 Conc. (nM) 0.69,29.39% and 16.32%
same,% Growth,[7]; Log10 Conc. (nM) 1.29,15.69% and 13.01%
same,% Growth,[7]; Log10 Conc. (nM) 1.89,-2.84% and -7.62%
same,% Growth,[7]; Log10 Conc. (nM) 2.49,-7.57% and -9.89%
same,% Growth,[7]; Log10 Conc. (nM) 3.10,-8.80% and -12.02%
same,% Growth,[7]; Log10 Conc. (nM) 3.70,-8.97%
same,% Growth,[7]; Log10 Conc. (nM) -0.52,95.67% and 71.20%
same,% Growth,[7]; Log10 Conc. (nM) -1.12,99.75% and 96.82%
same,% Growth,[7]; Log10 Conc. (nM) -1.72,90.05%
same,Sensitivity in growth assays,[7]; LNCaP-CDK7-D97N vs parental,remaining sensitive
